# Assay results taken from patent publication US20220298146A1, “HETEROCYCLIC DERIVATIVE AND USE THEREOF” (Transthera Sciences (Nanjing), Inc., priority 2019, published 2022).
# How the values were obtained:
# LCK (h) = target: T1, LCK (h) (Homo sapiens, UniProt P06239); assay: Enzymatic activity assay, LCK (h) kinase, [γ-33P]-ATP; type: biochemical; settings: 10 μM [γ-33P]-ATP, 40 min, room temperature; read-out: Inhibitory Activity on LCK (h) kinase, IC50
# T1 construct: purchased
# Procedure: (§1) Test samples: the compounds of the present invention, having structures and preparation methods shown above.
# Preparation of Compound Stock Solutions:
# (§2) Compounds were each dissolved in 100% DMSO to prepare stock solutions with a maximum concentration of 500 μM.
# Preparation of Compound Working Solutions:
# (§3) The compound stock solutions were diluted to final concentrations of 500 μM, 150 μM, 50 μM, 15 μM, 5 μM, 1.5 μM, 0.5 μM, 0.15 μM and 0.05 μM to prepare compound working solutions (50×).
# Preparation of Different Enzymatic Reaction Solutions:
# LCK (h) enzyme was dissolved in a mixture of 50 mM Tris (pH 7.5), 0.1 mM EGTA, 0.1 mM Na3VO4 and 250 μM KVEKIGEGTYGVVYK to prepare an enzyme solution with a final concentration of 45 nM. An Mg/ATP mixture of 10 mM magnesium acetate and 10 μM [γ-^33P]-ATP was used to activate the enzymatic reaction.
# (§4) The compound working solutions were added to a 384-well plate, with final concentrations of 10000 nM, 3000 nM, 1000 nM, 300 nM, 100 nM, 30 nM, 10 nM, 3 nM and 1 nM, respectively, and then different enzymatic reaction solutions prepared according to the above conditions were added. The reaction solutions were incubated at room temperature for 40 min, and then 0.5% phosphoric acid solutions were added to terminate the reaction. 10 μL of the reaction solution was added dropwise to P30 filter paper which was washed 4 times with a 0.425% phosphoric acid solution and once with methanol and then placed in a scintillation counter for detection. Gray analysis was performed on the results with Image J software, and IC50 values were calculated with GraphPad 5.0 software.
# Axl (h) = target: T2, Axl (h) (Homo sapiens, UniProt P30530); assay: Enzymatic activity assay, Axl (h) kinase, [γ-33P]-ATP; type: biochemical; settings: 10 μM [γ-33P]-ATP, 40 min, room temperature; read-out: Inhibitory Activity on Ax1 (h), IC50
# T2 construct: purchased
# T2 sequence (P30530 26-894): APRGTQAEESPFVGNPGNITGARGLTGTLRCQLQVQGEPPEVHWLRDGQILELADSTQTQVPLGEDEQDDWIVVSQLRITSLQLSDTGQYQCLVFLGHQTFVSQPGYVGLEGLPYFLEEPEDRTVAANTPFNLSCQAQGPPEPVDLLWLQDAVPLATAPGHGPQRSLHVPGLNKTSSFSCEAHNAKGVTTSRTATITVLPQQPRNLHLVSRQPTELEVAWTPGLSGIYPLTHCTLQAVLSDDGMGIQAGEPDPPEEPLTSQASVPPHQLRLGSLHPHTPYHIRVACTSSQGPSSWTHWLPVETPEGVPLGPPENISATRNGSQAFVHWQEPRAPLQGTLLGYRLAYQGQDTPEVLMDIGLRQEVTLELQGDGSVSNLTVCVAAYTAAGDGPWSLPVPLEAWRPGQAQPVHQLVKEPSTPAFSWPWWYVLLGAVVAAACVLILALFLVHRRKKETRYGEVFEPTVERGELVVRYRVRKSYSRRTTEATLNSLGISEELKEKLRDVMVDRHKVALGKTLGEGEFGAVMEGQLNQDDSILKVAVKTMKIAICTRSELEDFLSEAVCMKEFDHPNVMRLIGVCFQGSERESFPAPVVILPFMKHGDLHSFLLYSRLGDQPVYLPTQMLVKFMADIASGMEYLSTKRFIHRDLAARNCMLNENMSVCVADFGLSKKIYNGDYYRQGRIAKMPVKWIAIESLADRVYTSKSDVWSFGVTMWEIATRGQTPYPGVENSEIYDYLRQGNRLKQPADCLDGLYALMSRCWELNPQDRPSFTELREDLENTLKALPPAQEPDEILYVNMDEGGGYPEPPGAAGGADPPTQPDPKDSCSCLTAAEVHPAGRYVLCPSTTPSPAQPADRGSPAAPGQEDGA
# Procedure: as §1
# (§5) (1) Preparation of Compound Stock Solutions
# as §2
# (§6) (2) Preparation of Compound Working Solutions
# as §3
# (3) Preparation of different enzymatic reaction solutions
# Axl (h) enzyme was dissolved in a mixture of 8 mM MOPS (pH 7.0), 0.2 mM EDTA and 250 μM KKSRGDYMTMQIG to prepare an enzyme solution with a final concentration of 1.7 nM. An Mg/ATP mixture of 10 mM magnesium acetate and 10 μM [γ-^33P]-ATP was used to activate the enzymatic reaction.
# as §4
# Ron (h) = target: T3, Ron (h) (Homo sapiens, UniProt Q04912); assay: Enzymatic activity assay, Ron (h) kinase, [γ-33P]-ATP; type: biochemical; settings: 10 μM [γ-33P]-ATP, 40 min, room temperature; read-out: Inhibitory Activity on Ron (h) kinase, IC50
# T3 construct: purchased
# T3 sequence (Q04912 25-1400): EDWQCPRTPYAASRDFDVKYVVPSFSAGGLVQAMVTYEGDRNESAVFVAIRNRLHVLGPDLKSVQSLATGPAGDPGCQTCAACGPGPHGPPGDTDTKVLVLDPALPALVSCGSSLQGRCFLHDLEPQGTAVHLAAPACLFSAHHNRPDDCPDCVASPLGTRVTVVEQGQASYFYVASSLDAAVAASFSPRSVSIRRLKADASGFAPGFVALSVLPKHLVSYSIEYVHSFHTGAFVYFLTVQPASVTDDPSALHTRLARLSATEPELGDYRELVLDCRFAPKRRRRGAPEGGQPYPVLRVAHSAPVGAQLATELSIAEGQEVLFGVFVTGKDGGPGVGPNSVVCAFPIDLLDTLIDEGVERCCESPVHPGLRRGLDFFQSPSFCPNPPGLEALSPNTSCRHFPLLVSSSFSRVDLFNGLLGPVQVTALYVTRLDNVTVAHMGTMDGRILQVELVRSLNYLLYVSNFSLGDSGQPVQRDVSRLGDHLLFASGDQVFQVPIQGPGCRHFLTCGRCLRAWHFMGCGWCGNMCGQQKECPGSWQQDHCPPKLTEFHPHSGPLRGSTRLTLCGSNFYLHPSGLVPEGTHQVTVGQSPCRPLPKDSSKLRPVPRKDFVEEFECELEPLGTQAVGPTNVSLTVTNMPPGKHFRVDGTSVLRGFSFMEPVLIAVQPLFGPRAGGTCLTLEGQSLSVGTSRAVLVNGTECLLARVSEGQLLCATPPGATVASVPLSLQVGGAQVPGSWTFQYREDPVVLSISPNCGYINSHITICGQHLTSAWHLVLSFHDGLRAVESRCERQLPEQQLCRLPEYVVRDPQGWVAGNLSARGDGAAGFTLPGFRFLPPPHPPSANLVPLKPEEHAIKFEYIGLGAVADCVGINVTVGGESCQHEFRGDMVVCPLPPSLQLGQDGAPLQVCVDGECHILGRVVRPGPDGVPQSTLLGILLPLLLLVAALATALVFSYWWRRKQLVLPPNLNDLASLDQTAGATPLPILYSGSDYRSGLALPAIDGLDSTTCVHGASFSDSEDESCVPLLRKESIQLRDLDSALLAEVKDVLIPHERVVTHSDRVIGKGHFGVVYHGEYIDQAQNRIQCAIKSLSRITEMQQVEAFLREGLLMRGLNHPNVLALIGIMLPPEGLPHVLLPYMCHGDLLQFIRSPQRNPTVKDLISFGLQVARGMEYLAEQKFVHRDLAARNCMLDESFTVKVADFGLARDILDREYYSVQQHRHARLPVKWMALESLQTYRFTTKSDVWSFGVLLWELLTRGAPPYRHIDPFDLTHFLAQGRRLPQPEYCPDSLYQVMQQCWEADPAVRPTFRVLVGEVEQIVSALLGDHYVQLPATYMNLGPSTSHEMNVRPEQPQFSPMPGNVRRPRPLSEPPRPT
# Procedure: as §1, §5, §2, §6, §3
# (3) Preparation of Different Enzymatic Reaction Solutions
# Ron (h) enzyme was dissolved in a mixture of 8 mM MOPS (pH 7.0), 0.2 mM EDTA and 250 μM GGMEDIYFEFMGGKKK to prepare an enzyme solution with a final concentration of 40.4 nM. An Mg/ATP mixture of 10 mM magnesium acetate and 10 μM [γ-^33P]-ATP was used to activate the enzymatic reaction.
# as §4
# H1299 cell pAxl = target: T4, H1299 cell pAxl (Homo sapiens, UniProt P30530); assay: Inhibitory activity on cell pAxl (H1299 cells, hGAS6 stimulation, Western Blot); type: cell-based; settings: hGAS6 200 ng/mL, tested at 1.1, 3.3, 10 and 30 nM, read-out: Inhibitory Activity on Cell pAx1, IC50
# T4 construct: endogenous in cells; host or cells: H1299
# T4 sequence (P30530 26-894): T2 sequence (P30530 26-894)
# Procedure: H1299 is a non-small cell lung cancer cell.
# Test samples: the compounds of the present invention, having structures shown above.
# Test instruments: protein electrophoresis apparatus (made by Bio Rad), membrane transfer apparatus (made by Bio Rad), exposure apparatus (made by Tanon), and CO2 cell incubator (made by Thermo).
# H1299 cells were inoculated into a 6-well plate (containing 10% FBS 1640 medium, 5×10^5 cells per well) and adherently cultivated at 37° C. and 5% CO2 for 18 h. The cells were starved overnight, and compounds with different concentrations were added. The compounds had final concentrations of 1.1 nM, 3.3 nM, 10 nM and 30 nM, with DMSO having a final concentration of 1‰. There was a medium containing 10‰ DMSO in the negative control well. The cells were incubated at 37° C. and 5% CO2 for 60 min, and then hGAS6 (R&D, final concentration: 200 ng/mL) was added to each well. The cells were further incubated for 60 min, and then the total protein of the cells was extracted for Western Blot experiment. IC50 values were calculated with GraphPad 5.0 software, and the inhibitory activities of the compounds on cell pAxl were detected.
# T1 sequence (P06239 whole entry): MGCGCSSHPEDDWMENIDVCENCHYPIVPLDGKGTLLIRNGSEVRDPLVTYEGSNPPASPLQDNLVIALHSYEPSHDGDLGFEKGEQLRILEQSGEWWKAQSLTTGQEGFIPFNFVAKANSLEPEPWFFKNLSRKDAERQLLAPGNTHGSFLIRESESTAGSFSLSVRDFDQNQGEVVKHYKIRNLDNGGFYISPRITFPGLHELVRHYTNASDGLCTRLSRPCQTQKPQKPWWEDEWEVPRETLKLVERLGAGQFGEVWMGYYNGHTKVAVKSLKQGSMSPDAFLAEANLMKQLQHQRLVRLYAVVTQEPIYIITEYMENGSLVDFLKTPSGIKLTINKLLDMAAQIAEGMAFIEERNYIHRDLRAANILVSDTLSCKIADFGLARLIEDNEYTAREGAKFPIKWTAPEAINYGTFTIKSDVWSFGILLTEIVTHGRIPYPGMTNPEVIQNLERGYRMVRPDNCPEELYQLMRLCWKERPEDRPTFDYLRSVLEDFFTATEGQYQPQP
SMILES,IC50 (LCK (h)),IC50 (Axl (h)),IC50 (Ron (h)),IC50 (H1299 cell pAxl)
"CC(C)n1cc(C(=O)Nc2ccc(Oc3ccnc(N)c3Cl)nc2)c(=O)c(-c2ccc(F)cc2)n1 [Compound 23, N-(6-((2-amino-3-chloropyridin-4-yl)oxy)pyridin-3-yl)-6-(4-fluorophenyl)-2-isopropyl-5-oxo-2,5-dihydropyridazine-4-carboxamide]",> 10 µM,0.03 µM,0.092 µM,–
"CC(C)n1cc(-c2ccc(F)cc2)c(=O)c(C(=O)Nc2ccc(Oc3cc4cnn(C)c4cc3-c3cn[nH]c3)cn2)n1 [Compound 1, 5-(4-fluorophenyl)-1-isopropyl-N-(5-((1-methyl-6-(1H-pyrazol-4-yl)-1H-indazol-5-yl)oxy)pyridin-2-yl)-4-oxo-1,4-dihydropyridazine-3-carboxamide]",–,–,–,0.0011 µM
"CC(C)n1cc(-c2ccc(F)cc2)c(=O)c(C(=O)Nc2cnc(Oc3ccnc(N)c3Cl)nc2)n1 [Compound 16, N-(2-((2-amino-3-chloropyridin-4-yl)oxy)pyrimidin-5-yl)-5-(4-fluorophenyl)-1-isopropyl-4-oxo-1,4-dihydropyridazine-3-carboxamide]",0.579 µM,0.016 µM,–,–
"C=CCn1cc(-c2ccc(F)cc2)c(=O)c(C(=O)Nc2cnc(Oc3ccnc(N)c3Cl)nc2)n1 [Compound 40, 1-allyl-N-(2-((2-amino-3-chloropyridin-4-yl)oxy)pyrimidin-5-yl)-5-(4-fluorophenyl)-4-oxo-1,4-dihydropyridazine-3-carboxamide]",1.07 µM,0.013 µM,–,–
"Nc1nccc(Oc2ncc(NC(=O)c3nn(C4CC4)cc(-c4ccc(F)cc4)c3=O)cn2)c1Cl [Compound 20, N-(2-((2-amino-3-chloropyridin-4-yl)oxy)pyrimidin-5-yl)-1-cyclopropyl-5-(4-fluorophenyl)-4-oxo-1,4-dihydropyridazine-3-carboxamide]",2.25 µM,0.017 µM,–,0.01 to 0.03 µM
